Measured values as given in publication PMC7881642, “Inducing secondary metabolite production of Aspergillus sydowii through microbial co-culture with Bacillus subtilis” (Microbial Cell Factories, 2021).

How the values were obtained:
PTP1b = target: T1, PTP1b (Homo sapiens, UniProt P18031); experiment: Protein tyrosine phosphatase 1b inhibitory assay (pNPP substrate); format: biochemical; conditions: 37 °C, pH 6.0
T1 sequence (P18031 1-435): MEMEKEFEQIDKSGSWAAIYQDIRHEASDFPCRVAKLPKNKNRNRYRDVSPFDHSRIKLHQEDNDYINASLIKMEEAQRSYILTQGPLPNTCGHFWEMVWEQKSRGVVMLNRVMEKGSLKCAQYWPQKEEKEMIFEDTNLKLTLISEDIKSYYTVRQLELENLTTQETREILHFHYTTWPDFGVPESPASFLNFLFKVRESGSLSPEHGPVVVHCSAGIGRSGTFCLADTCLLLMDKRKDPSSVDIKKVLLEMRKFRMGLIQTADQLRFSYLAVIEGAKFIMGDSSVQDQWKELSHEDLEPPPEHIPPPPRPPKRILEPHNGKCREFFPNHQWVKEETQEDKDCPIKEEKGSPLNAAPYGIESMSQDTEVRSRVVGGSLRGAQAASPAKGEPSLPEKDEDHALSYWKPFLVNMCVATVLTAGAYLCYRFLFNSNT
Procedure: The PTP1b inhibitory activity of the tested compounds was measured at 37 °C using p-nitrophenyl phosphate (pNPP) as the substrate. The reaction was performed in a 96-well plate (final volume of 150 μL) and incubated for 30 min in the assay buffer (50 mM citrate (pH 6.0), 0.1 M NaCl, 1 mM EDTA, and 1 mM dithiothreitol) at 37 °C. Subsequently, the reaction was terminated by the addition of 10 M NaOH and the amount of p-nitrophenyl was determined by measuring the absorbance at 405 nm.

SHP1 = SHP1 (Homo sapiens, UniProt P29350); experiment: SHP1 inhibitory activity; format: biochemical
CD45 = target: T2, CD45 (Homo sapiens, UniProt P08575); experiment: CD45 inhibitory activity; format: biochemical
T2 sequence (P08575 26-1306): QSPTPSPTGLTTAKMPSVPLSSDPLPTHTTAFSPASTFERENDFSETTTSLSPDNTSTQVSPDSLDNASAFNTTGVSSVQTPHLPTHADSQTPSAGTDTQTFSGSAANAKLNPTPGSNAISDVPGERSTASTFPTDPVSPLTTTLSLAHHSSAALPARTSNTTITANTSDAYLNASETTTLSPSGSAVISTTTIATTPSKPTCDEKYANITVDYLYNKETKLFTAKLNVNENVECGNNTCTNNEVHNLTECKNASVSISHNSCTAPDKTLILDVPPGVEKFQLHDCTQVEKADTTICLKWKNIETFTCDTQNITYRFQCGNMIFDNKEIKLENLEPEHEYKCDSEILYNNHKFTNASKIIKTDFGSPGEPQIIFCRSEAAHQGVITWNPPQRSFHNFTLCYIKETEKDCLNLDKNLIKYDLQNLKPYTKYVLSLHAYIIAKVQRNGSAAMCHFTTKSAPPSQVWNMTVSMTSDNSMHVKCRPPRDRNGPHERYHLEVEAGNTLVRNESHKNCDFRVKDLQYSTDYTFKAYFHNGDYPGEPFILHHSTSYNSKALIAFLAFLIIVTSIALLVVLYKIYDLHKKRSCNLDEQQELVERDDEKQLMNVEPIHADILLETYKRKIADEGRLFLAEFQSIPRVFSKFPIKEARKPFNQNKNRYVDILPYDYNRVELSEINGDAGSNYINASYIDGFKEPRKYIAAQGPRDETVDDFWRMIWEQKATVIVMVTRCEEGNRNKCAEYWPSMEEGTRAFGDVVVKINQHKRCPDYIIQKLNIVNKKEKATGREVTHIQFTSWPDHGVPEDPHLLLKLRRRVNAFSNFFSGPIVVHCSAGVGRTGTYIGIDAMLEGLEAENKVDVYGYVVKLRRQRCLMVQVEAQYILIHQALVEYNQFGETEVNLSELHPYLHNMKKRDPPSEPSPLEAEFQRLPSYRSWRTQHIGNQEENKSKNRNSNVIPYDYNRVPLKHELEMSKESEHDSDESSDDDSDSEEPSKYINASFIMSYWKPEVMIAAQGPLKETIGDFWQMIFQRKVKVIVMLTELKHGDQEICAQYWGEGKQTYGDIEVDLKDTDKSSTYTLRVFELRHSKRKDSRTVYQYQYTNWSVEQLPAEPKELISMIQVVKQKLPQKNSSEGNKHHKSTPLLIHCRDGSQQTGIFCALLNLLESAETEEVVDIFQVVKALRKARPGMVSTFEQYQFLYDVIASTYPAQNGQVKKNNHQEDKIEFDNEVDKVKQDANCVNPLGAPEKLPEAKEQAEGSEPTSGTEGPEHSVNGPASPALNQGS

fungi = tested on: fungi; design: method as in PMID 23488669; conditions: cited from earlier work
nematode = experiment: anti-nematode activity
[1] = tested on: insulin-stimulated glucose consumption; design: method as in PMID 23647825; conditions: cited from earlier work
S. aureus = tested on: S. aureus; design: method as in doi:10.1007/s10600-016-1885-z; conditions: cited from earlier work
B. cereus = tested on: B. cereus; design: method as in doi:10.1007/s10600-016-1885-z; conditions: cited from earlier work

Sequence of SHP1 (P29350 whole entry): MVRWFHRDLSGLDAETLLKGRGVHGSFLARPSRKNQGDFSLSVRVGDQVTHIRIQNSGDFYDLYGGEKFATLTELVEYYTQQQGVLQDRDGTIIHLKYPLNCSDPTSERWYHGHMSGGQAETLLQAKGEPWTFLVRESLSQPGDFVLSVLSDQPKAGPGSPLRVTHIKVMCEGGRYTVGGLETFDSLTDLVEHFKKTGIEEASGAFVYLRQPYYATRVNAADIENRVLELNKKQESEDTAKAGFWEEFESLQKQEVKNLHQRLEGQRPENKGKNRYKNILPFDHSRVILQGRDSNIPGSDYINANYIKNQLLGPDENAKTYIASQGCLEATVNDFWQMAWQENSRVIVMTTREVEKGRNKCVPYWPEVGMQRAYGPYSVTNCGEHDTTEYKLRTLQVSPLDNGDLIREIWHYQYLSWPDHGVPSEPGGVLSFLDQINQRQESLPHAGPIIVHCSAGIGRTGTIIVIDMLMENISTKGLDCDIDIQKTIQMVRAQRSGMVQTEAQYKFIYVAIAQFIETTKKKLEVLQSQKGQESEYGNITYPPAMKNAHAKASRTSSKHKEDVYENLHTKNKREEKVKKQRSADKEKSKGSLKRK

Row | Structure (SMILES) | IC50 (PTP1b) | IC50 (SHP1) | IC50 (CD45) | IC50 (nematode) | antifungal activity MIC (fungi) | effect on insulin-stimulated glucose consumption [1] | MIC against S. aureus (S. aureus) | MIC against B. cereus (B. cereus)
1 | C[C@@H]1CCC/C=C/C=C/[C@H](O)C[C@@H](O)C/C=C\C=C\[C@@H](O)C/C=C/C=C\C(=O)O1 [N13, Macrolactin A] | > 20 µM | 14.6 ± 0.39 µM | 17.9 µM | – | 40 to 300 µM | – | – | –
2 | CC(C)CCC[C@](C)(O)c1ccc(CO)cc1O [(S)-(+)-sydonol] | – | – | – | – | – | potentiated | – | –
3 | CC(C)(O)CCCC(C)(O)c1ccc(C(=O)O)cc1O (stereo in doubt) [N4, (R)-(−)-Hydroxysydonic acid] | > 20 µM | 15.72 ± 0.11 µM | > 20 µM | – | – | – | less than 25 μM | less than 25 μM

Continued, in another order:

Row | IC50 (PTP1b) | IC50 (SHP1) | IC50 (CD45) | IC50 (nematode) | Structure (SMILES) | antifungal activity MIC (fungi) | effect on insulin-stimulated glucose consumption [1] | MIC against S. aureus (S. aureus) | MIC against B. cereus (B. cereus)
4 | 15.88 ± 0.13 µM | > 20 µM | > 20 µM | 50 µM | CC(C)C(O)CC[C@](C)(O)c1ccc(C(=O)O)cc1O (stereo partly drawn) [N3, (7S)-(−)-10-Hydroxysydonic acid] | – | – | – | –
5 | > 20 µM | > 20 µM | > 20 µM | – | Cc1cc(O)cc(O)c1C(=O)O [N1, Orsellinic acid] | – | – | – | –
6 | 14.2 ± 0.21 µM | 11.68 ± 0.08 µM | 16 µM | – | CC(C)CCCC(C)(O)c1ccc(C(=O)NC(CO)C(=O)O)cc1O (centres unmarked) [N7, Serine sydonate] | – | – | – | –
7 | 7.97 µM | 8.35 ± 0.35 µM | > 20 µM | – | CC(C)CCC[C@](C)(O)c1ccc(C(=O)O)cc1O [N2, Sydonic acid] | – | – | – | –
